Reference: US20260209249A1, “NOVEL TRICYCLIC COMPOUND AS KRAS G12D INHIBITOR, AND USE THEREOF” (SK Biopharmaceuticals Co., priority 2022, published 2026)

Tests used:
[1] = system: ERK phosphorylation (pERK) induced by KRAS G12D mutation; experiment: Inhibitory activity against ERK phosphorylation (pERK) induced by KRAS G12D mutation, immunofluorescence assay in AsPC-1 cells; format: cell-based; conditions: Homo sapiens, ASPC1, 3 h drug treatment, pERK (Thr202/Tyr204) signal normalized to DAPI
In short: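 AsPC-1 cells attached 16 h, then treated 3 h with 3-fold dilutions from 10 μM top. Fixed, permeabilized, immunostained for pERK (Thr202/Tyr204) with Alexa 488 secondary; high-content imaging, signal normalized to DAPI and to DMSO, IC50 from four-parameter fit.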

[2] = target: T1, GppNHp-KRAS G12D mutant protein (Homo sapiens, UniProt P01116, G12D); experiment: Differential scanning fluorimetry (DSF) binding affinity to GppNHp-KRAS G12D mutant protein; conditions: DSF thermal shift, 10 μM compound, 4 μg KRAS protein, 50 mM HEPES (pH 7.5)
T1 construct: purchased Daegu Gyeongbuk Medical Innovation Foundation (DGMIF), made to order
In short: (§1)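 Thermal shift ΔTm was measured at 10 μM compound over a 25–99 °C ramp (0.05 °C/s), read at 580 nm ex/623 nm em with SYPRO Orange (2×). The protein (4 μg) was preincubated with compound for 30 min at room temperature, in 50 mM HEPES pH 7.5 for GppNHp-KRAS G12D or in kit buffer for GDP-KRAS G12D.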

[3] = target: T2, GDP-KRAS G12D mutant protein (Homo sapiens, UniProt P01116, G12D); experiment: Differential scanning fluorimetry (DSF) binding affinity to GDP-KRAS G12D mutant protein; conditions: DSF thermal shift, 10 μM compound, 4 μg KRAS protein
T2 construct: purchased Daegu Gyeongbuk Medical Innovation Foundation (DGMIF), made to order
In short: as §1

[4] = system: KRAS G12D mutant pancreatic cancer cell line AsPC-1; experiment: Cell viability assay using KRAS G12D mutant cells (AsPC-1, 3D culture, celltiter-glo 3D); format: cell-based; conditions: Homo sapiens, ASPC1, 5th day after compound treatment
In short: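 AsPC-1 cells in 3D culture, 1000 cells/well, treated next day with 1/5 serial dilutions from 10 μM or 50 μM, 1:1 v/v. Viability read by CellTiter-Glo 3D on day 5, normalized to DMSO (100%) and untreated backgrounds; IC50 from four-parameter sigmoidal fit.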

Row | Compound | IC50 [1] | GppNHp-KRAS G12D (ΔTmD, ° C.) [2] | GDP-KRAS G12D (ΔTmD, ° C.) [3] | IC50 [4]
1 | C#Cc1c(F)ccc2cc(O)cc(-c3c(F)c4nc(OC[C@@]56CCCN5C[C@H](F)C6)nc(N5C[C@H]6CC[C@@H](C5)N6)c4c4cn(C)nc34)c12 [Example 80, 4-(9-((1R,5S)-3,8-diazabicyclo[3.2.1]octan-3-yl)-5-fluoro-7-(((2R,7aS)-2-fluorotetrahydro-1H-pyrrolizin-7a(5H)-yl)methoxy)-2-methyl-2H-pyrazolo[4,3-n]quinazolin-4-yl)-5-ethynyl-6-fluoronaphthalen-2-ol] | 35 nM | 11.13 °C | 14.81 °C | 46 nM
2 | C#Cc1c(F)ccc2cc(N)cc(-c3c(F)c4nc(OC[C@@]56CCCN5C[C@H](F)C6)nc(N5C[C@H]6CC[C@@H](C5)N6)c4c4cn(C)nc34)c12 [Example 81, 4-(9-((1R,5S)-3,8-diazabicyclo[3.2.1]octan-3-yl)-5-fluoro-7-(((2R,7aS)-2-fluorotetrahydro-1H-pyrrolizin-7a(5H)-yl)methoxy)-2-methyl-2H-pyrazolo[4,3-n]quinazolin-4-yl)-5-ethynyl-6-fluoronaphthalen-2-amine] | 81 nM | 6.66 °C | 10.04 °C | 280 nM
3 | CCc1c(F)ccc2cc(O)cc(-c3c(F)c4nc(OC[C@@]56CCCN5C/C(=C\F)C6)nc(N5C[C@H]6CC[C@@H](C5)N6)c4c4cn(C)nc34)c12 [Example 85, 4-(9-((1R,5S)-3,8-diazabicyclo[3.2.1]octan-3-yl)-5-fluoro-7-(((S,Z)-2-(fluoromethylene)tetrahydro-1H-pyrrolizin-7a(5H)-yl)methoxy)-2-methyl-2H-pyrazolo[4,3-f]quinazolin-4-yl)-5-ethyl-6-fluoronaphthalen-2-ol] | 7 nM | 12.43 °C | 15.24 °C | 11 nM
4 | Cn1cc2c(n1)c(-c1cc(O)cc3ccc(F)c(F)c13)c(F)c1nc(OC[C@@]34CCCN3C/C(=C\F)C4)nc(N3C[C@H]4CC[C@@H](C3)N4)c12 [Example 86, 4-(9-((1R,5S)-3,8-diazabicyclo[3.2.1]octan-3-yl)-5-fluoro-7-(((S,Z)-2-(fluoromethylene)tetrahydro-1H-pyrrolizin-7a(5H)-yl)methoxy)-2-methyl-2H-pyrazolo[4,3-f]quinazolin-4-yl)-5,6-difluoronaphthalen-2-ol] | 29 nM | 10.69 °C | 13.07 °C | 48 nM
5 | C#Cc1c(F)ccc2cc(O)cc(-c3c(F)c4nc(OCC5(CN6CCC7(CC6)CC7(F)F)CC5)nc(N5C[C@H]6CC[C@@H](C5)N6)c4c4cn(C)nc34)c12 [Example 87, 4-(9-((1R,5S)-3,8-diazabicyclo[3.2.1]octan-3-yl)-7-((1-((1,1-difluoro-6-azaspiro[2.5]octan-6-yl)methyl)cyclopropyl)methoxy)-5-fluoro-2-methyl-2H-pyrazolo[4,3-f]quinazolin-4-yl)-5-ethynyl-6-fluoronaphthalen-2-ol] | 4 nM | 8.86 °C | 14.94 °C | 11 nM
6 | C#Cc1c(F)ccc2cc(O)cc(-c3c(F)c4nc(OC[C@@]56CCCN5C[C@H](F)C6)nc(N5CC6CCC5CN6)c4c4cn(C)nc34)c12 (stereo partly drawn) [Example 88, 4-(9-(2,5-diazabicyclo[2.2.2]octan-2-yl)-5-fluoro-7-(((2R,7aS)-2-fluorotetrahydro-1H-pyrrolizin-7a(5H)-yl)methoxy)-2-methyl-2H-pyrazolo[4,3-n]quinazolin-4-yl)-5-ethynyl-6-fluoronaphthalen-2-ol] | 484 nM | 5.31 °C | 6.35 °C | 734 nM
7 | C#Cc1c(F)ccc2cc(O)cc(-c3c(F)c4nc(OC[C@@]56CCCN5CC(=C(F)F)C6)nc(N5C[C@H]6CC[C@@H](C5)N6)c4c4cn(C)nc34)c12 [Example 90, 4-(9-((1R,5S)-3,8-diazabicyclo[3.2.1]octan-3-yl)-7-(((S)-2-(difluoromethylene)tetrahydro-1H-pyrrolizin-7a(5H)-yl)methoxy)-5-fluoro-2-methyl-2H-pyrazolo[4,3-f]quinazolin-4-yl)-5-ethynyl-6-fluoronaphthalen-2-ol] | 5 nM | 11.38 °C | 16.27 °C | 4 nM
8 | CCc1c(F)ccc2cc(O)cc(-c3c(F)c4nc(OC[C@@]56CCCN5C[C@H](F)C6)nc(N5C[C@H]6CC[C@@H](C5)N6)c4c4cn(C)nc34)c12 [Example 93, 4-(9-((1R,5S)-3,8-diazabicyclo[3.2.1]octan-3-yl)-5-fluoro-7-(((2R,7aS)-2-fluorotetrahydro-1H-pyrrolizin-7a(5H)-yl)methoxy)-2-methyl-2H-pyrazolo[4,3-n]quinazolin-4-yl)-5-ethyl-6-fluoronaphthalen-2-ol] | 16 nM | 8.72 °C | 14.20 °C | 38 nM
9 | C#Cc1c(F)ccc2cc(O)cc(-c3c(F)c4nc(OC[C@@]56CCCN5C/C(=C\F)C6)nc(N5C[C@H]6CC[C@@H](C5)N6)c4c4cn(C)nc34)c12 [Example 94, 4-(9-((1R,5S)-3,8-diazabicyclo[3.2.1]octan-3-yl)-5-fluoro-7-(((S,Z)-2-(fluoromethylene)tetrahydro-1H-pyrrolizin-7a(5H)-yl)methoxy)-2-methyl-2H-pyrazolo[4,3-f]quinazolin-4-yl)-5-ethynyl-6-fluoronaphthalen-2-ol] | 18 nM | 12.28 °C | 17.46 °C | 14 nM
10 | Cn1cc2c(n1)c(-c1cc(O)cc3ccc(F)c(F)c13)c(F)c1nc(OC[C@@]34CCCN3C[C@H](F)C4)nc(N3C[C@H]4CC[C@@H](C3)N4)c12 [Example 95, 4-(9-((1R,5S)-3,8-diazabicyclo[3.2.1]octan-3-yl)-5-fluoro-7-(((2R,7aS)-2-fluorotetrahydro-1H-pyrrolizin-7a(5H)-yl)methoxy)-2-methyl-2H-pyrazolo[4,3-f]quinazolin-4-yl)-5,6-difluoronaphthalen-2-ol] | 82 nM | 7.54 °C | 11.83 °C | 263 nM
11 | C#Cc1c(F)ccc2cc(O)cc(-c3c(F)c4nc(OC[C@@]56CC[C@@H](COC)N5CC(=C)C6)nc(N5C[C@H]6CC[C@@H](C5)N6)c4c4cn(C)nc34)c12 [Example 96, 4-(9-((1R,5S)-3,8-diazabicyclo[3.2.1]octan-3-yl)-5-fluoro-7-(((5S,7aS)-5-(methoxymethyl)-2-methylenetetrahydro-1H-pyrrolizin-7a(5H)-yl)methoxy)-2-methyl-2H-pyrazolo[4,3-n]quinazolin-4-yl)-5-ethynyl-6-fluoronaphthalen-2-ol] | 20 nM | 10.64 °C | 15.09 °C | 11 nM
